Converted amounts (≈) assume the structure as drawn. Non-standard residues stand in square brackets, D forms with d. Residues, ends and D or L forms follow the SMILES beside them. Nle = CCCC[C@H](N)C(=O)O; βAla = NCCC(=O)O
How the values were obtained:
[1] = Aqueous solubility of lyophilized peptide analogs (observed dissolution in Dulbecco's phosphate buffered saline and water); format: physicochemical; details: observed dissolution in both Dulbecco's phosphate buffered saline and water; 5 mg/mL was the maximum tested
Method: Peptide analogs of NKA were purified to ≥95% purity. […] Compounds A, B, H, and J (SEQ ID NO: 1, 2, 8, and 10) were considered to be aqueous insoluble (<0.1 mg/mL). *Aqueous solubilities of the lyophilized peptide analogs were determined based on the observed dissolution in both Dulbecco's phosphate buffered saline and water. gc=Gly-(R-gamma-lactam)-Leu or (S)-2-((R)-3-amino)-2-oxopyrrolidin-1-yl)-4-methylpantanoyl.

[2] = target: T1, human NK1 receptor (hNK1R) (Homo sapiens, UniProt P25103); assay: Intracellular calcium mobilization (Fluo-4 AM, FLIPR) in CHO cells expressing recombinant hNK1R; format: cell-based; details: for Emax: CHO, calcium response, CHO cells, full or partial agonists, read-out: maximal response at hNK1R compared to Substance P; for EC50: calcium mobilization, CHO-hNK1 cells, agonist potency, read-out: hNK1R pEC50 (converted)
T1 construct: expressed in transfected cells; host or cells: CHO (CHO-hNK1)
T1 sequence (P25103 whole entry): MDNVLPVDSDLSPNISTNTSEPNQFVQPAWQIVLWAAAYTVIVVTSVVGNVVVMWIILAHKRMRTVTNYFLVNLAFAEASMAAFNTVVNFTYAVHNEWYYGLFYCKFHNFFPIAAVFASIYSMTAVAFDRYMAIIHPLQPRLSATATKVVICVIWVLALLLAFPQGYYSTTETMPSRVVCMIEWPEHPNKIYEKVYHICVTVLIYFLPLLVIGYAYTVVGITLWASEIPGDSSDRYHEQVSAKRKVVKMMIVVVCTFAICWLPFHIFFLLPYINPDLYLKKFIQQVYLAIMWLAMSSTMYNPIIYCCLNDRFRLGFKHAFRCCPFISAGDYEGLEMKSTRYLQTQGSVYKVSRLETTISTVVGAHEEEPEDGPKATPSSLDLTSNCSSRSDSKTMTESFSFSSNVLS
Method: (§1) Intracellular Calcium Mobilization: The agonist efficacy of compounds A-J at recombinant hNK2R or hNK1Rs expressed in CHO cells was assessed by measuring intracellular calcium mobilization using the calcium-sensitive dye Fluo-4 AM (MOLECULAR PROBES, EUGENE, OR, USA) and a Fluorometric Imaging Plate Reader (FLIPR, MOLECULAR DEVICES, CA, USA). CHO-hNK1 and CHO-hNK2 cells were seeded into black walled clear-bottom 384-well plates) at a density of 10,000 and 15,000 cells per well in 50 μL culture media, respectively, and grown overnight at 37° C. in a humidified CO2-incubator. Cells were washed in washing buffer using a Microplate Washer BIOTEK 384 instrument, leaving 20 μL of buffer per well after the final aspiration. Cells were then incubated at 37° C. with the cytoplasmic Ca^2+ indicator Fluo-4 AM at 2 μM in assay buffer containing 2.5 mM probenecid and 0.02% Pluronic F-127 for 45-60 min (cell loading). Cells were then washed 3 times in washing buffer using a Microplate Washer BIOTEK 384 instrument, leaving 30 μL of buffer in each well after the last wash. Loaded cell plates were transferred to the FLIPR Tetra instrument and calcium responses monitored as described below. A dual read-out FLIPR protocol was used, allowing for characterization of both agonist and antagonist profiles. For quality control, in each compound plate the signal was monitored by evaluating the responses to the reference standards (NKA and Substance P).
(§2) Twelve concentrations of each of the compounds A-J were evaluated for their ability to increase intracellular calcium levels with respect to the agonist reference standard (NKA or Substance P), and the pEC50 value was calculated. […] Concentration response curves of compounds were run in duplicate on two different occasions from the same stock solutions. Test solutions were prepared from 10 mM stock solutions in DMSO and 1 μL of each solution was stamped into V-bottom assay plates containing 49 μL assay buffer. The final concentration of DMSO was 0.5% in each well.
(§3) The results of the intracellular calcium mobilization by in vitro activation of recombinant hNK2Rs or hNK1Rs expressed in CHO cells as described above for the 10 peptide analogs A-J, is shown in Table 3 below. In addition, FIGS. 3A-3C are exemplary graphs showing stimulation of [Ca^2+] response in CHO cells expressing human NK2 or NK1 receptors by Compound A, Compound B, and Compound G, respectively. In FIGS. 3A-3C, data are expressed as % of the maximal response to substance P for NK1 receptors, or NKA for NK2 receptors. Each data point is the mean±SD from duplicate determinations.

[3] = target: T2, human NK2 receptor (hNK2R) (Homo sapiens, UniProt P21452); assay: Intracellular calcium mobilization (Fluo-4 AM, FLIPR) in CHO cells expressing recombinant hNK2R; format: cell-based; details: for EC50: calcium mobilization, CHO-hNK2 cells, agonist potency, read-out: hNK2R pEC50 (converted); for selectivity for activation of hNK2Rs vs hNK1Rs: from ratios of EC50s
T2 construct: expressed in transfected cells; host or cells: CHO (CHO-hNK2)
T2 sequence (P21452 1-398): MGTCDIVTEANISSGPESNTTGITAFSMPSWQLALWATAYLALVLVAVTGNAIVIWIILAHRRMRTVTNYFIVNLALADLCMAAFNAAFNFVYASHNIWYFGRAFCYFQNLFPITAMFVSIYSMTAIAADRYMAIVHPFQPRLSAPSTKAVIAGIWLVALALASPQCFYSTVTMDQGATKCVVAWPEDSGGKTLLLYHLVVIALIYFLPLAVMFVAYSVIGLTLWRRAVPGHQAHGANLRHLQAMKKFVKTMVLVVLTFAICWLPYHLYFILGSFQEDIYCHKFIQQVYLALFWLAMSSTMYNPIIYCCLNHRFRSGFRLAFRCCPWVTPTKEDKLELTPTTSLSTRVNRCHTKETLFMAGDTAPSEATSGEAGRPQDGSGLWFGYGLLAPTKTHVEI
Method: as §1, §2, §3

Compound	Aqueous solubility [1]	solubility [1]	Emax [2]	EC50 [2]	EC50 [3]	Emax ([3]; calcium response, CHO cells, full agonists, read-out: maximal response at hNK2R compared to Neurokinin A)	selectivity for activation of hNK2Rs vs hNK1Rs [3]
CSCC[C@H](NC(=O)[C@H](CC(C)C)N1CC[C@@H](NC(=O)[C@@H](NC(=O)[C@H](Cc2ccccc2)NC(=O)[C@H](CCCCN)NC(=O)[C@@H](N)CC(=O)O)C(C)C)C1=O)C(N)=O [Compound C, Asp-Lys-Phe-Val-gc-Met-NH2]	–	5000 µg/mL (≈ 5.99 mM)	–	53.7 nM	0.427 nM	–	–
CCCC[C@H](NC(=O)[C@H](CC(C)C)N1CC[C@@H](NC(=O)[C@@H](NC(=O)[C@H](Cc2ccccc2)NC(=O)[C@H](CCCNC(=N)N)NC(=O)[C@@H](N)CC(=O)O)C(C)C)C1=O)C(N)=O [Compound F, Asp-Arg-Phe-Val-gc-Nle-NH2]	–	5000 µg/mL (≈ 5.92 mM)	–	234 nM	2.51 nM	–	–
CCCC[C@H](NC(=O)[C@H](CC(C)C)NC(=O)CCNC(=O)[C@@H](NC(=O)[C@H](Cc1ccccc1)NC(=O)[C@H](CO)NC(=O)[C@H](CC(=O)O)NC(=O)[C@@H](N)CCCCN)C(C)C)C(N)=O [Compound J, Lys-Asp-Ser-Phe-Val-(β-Ala)-Leu-Nle-NH2] (H-KDSFV[βAla]L[Nle]-NH2; N-terminus assumed)	<100 µg/mL	< 100 µg/mL	≥ 85%	302 nM	13.2 nM	≥ 85%	> 20 fold
CSCC[C@H](NC(=O)[C@H](CC(C)C)N1CC[C@@H](NC(=O)[C@@H](NC(=O)[C@H](Cc2ccccc2)NC(=O)[C@H](CO)NC(=O)[C@@H](N)CC(=O)O)C(C)C)C1=O)C(N)=O [Compound A, Asp-Ser-Phe-Val-gc-Met-NH2]	<100 µg/mL	< 100 µg/mL	≥ 85%	490 nM	0.676 nM	–	> 700 fold
CCCC[C@H](NC(=O)[C@H](CC(C)C)N1CC[C@@H](NC(=O)[C@@H](NC(=O)[C@H](Cc2ccccc2)NC(=O)[C@H](CO)NC(=O)[C@H](CC(=O)O)NC(=O)[C@@H](N)CCCCN)C(C)C)C1=O)C(N)=O [Compound G, Lys-Asp-Ser-Phe-Val-gc-Nle-NH2]	–	5000 µg/mL (≈ 5.54 mM)	≥ 73%	1620 nM	7.76 nM	–	–

Other lines, results leading:

Aqueous solubility [1]	solubility [1]	Emax [2]	EC50 [2]	EC50 [3]	Emax ([3]; calcium response, CHO cells, full agonists, read-out: maximal response at hNK2R compared to Neurokinin A)	selectivity for activation of hNK2Rs vs hNK1Rs [3]	Compound
<100 µg/mL	< 100 µg/mL	≥ 73%	1780 nM	8.51 nM	–	–	CCCC[C@H](NC(=O)[C@H](CC(C)C)N1CC[C@@H](NC(=O)[C@@H](NC(=O)[C@H](Cc2ccccc2)NC(=O)[C@H](CO)NC(=O)[C@@H](N)CC(=O)O)C(C)C)C1=O)C(N)=O [Compound B, Asp-Ser-Phe-Val-gc-Nle-NH2]
–	5000 µg/mL (≈ 5.8 mM)	–	17.4 nM	0.195 nM	–	–	CSCC[C@H](NC(=O)[C@H](CC(C)C)N1CC[C@@H](NC(=O)[C@@H](NC(=O)[C@H](Cc2ccccc2)NC(=O)[C@H](CCCNC(=N)N)NC(=O)[C@@H](N)CC(=O)O)C(C)C)C1=O)C(N)=O [Compound E, Asp-Arg-Phe-Val-gc-Met-NH2]

— patent publication US20230374071A1, “COMPOSITIONS FOR INDUCING URINARY VOIDING AND DEFECATION” (Dignify Therapeutics, LLC, priority 2020, published 2023)
